Test results taken from paper PMC6895180 (Nature Communications, 2019).
Where “and” joins values, the source holds several entries; their conditions need not be identical. Equal values may be shown once. Read-outs that look alike come from different tables or passages of the source. Marks after values point to notes of the source that are not given here.

Experiments:
T. b. brucei Squib 427 = experiment: Mouse model of acute HAT; details: Suramin 10 mg/kg sid IP
Procedure: Drinking water and food were available ad libitum throughout the experiment. […] The reference drug suramin was formulated in phospahte-buffered saline (PBS) at 2.5 mg mL^−1 and administered s.i.d. i.p. for 5 days at 10 mg kg^−1 (n = 3). All treatments were initiated 30 min prior to the i.p. infection. […] Parasitaemia was determined by microscopic evaluation of tail vein blood samples at 4, 7, 10, 14 and 21 dpi (pre-set endpoint). As a test of cure, blood samples (250 µL) were collected from treated mice at 21 dpi and were sub-inoculated i.p. in naive Swiss mice (n = 3), followed by monitoring of parasitaemia as follow-up.

[1] = test system: Lister 427WT T. b. brucei; experiment: Adenosine deaminase susceptibility (drug sensitivity with/without 2 µM deoxycoformycin); type: cell-based, Trypanosoma brucei brucei
Procedure: Drug susceptibility tests with Lister 427WT, TbAT1-KO[48], B48[26] and ISMR1[27] were performed using an assay based on the viability indicator dye resazurin in 96-well plates, each well containing 2 × 10^4 cells. The plates were incubated for 48 h with a doubling dilution series of the test compounds in HMI-9/fetal bovine serum at 37 °C/5% CO2 (23 dilutions starting at 100 µM, except for the pentamidine control (50 µM)), after which resazurin (20 µL of 125 µg mL^−1 resazurin sodium salt solution was added to each well (containing 200 µL of cells and test compound)) was added to each well and the plates incubated for another 24 h. Fluorescence was determined using a FLUOstar Optima (BMG Labtech, Durham, NC) and the results fitted to a sigmoid curve with variable slope using Prism 5.0 or Prism 7.04 (GraphPad, San Diego, CA). […]
Adenosine deaminase susceptibility
in the presence or absence of 2 µM 2’-deoxycoformycin. […]

[2] = test system: B48: pentamidine, diminazene and melaminophenyl arsenical resistant T. brucei line; experiment: microbe, parasite or virus in culture; type: cell-based, Trypanosoma brucei brucei; details: for EC50: Trypanosoma brucei; for RF (B48): resistance factor vs Lister 427WT
[3] = test system: TbAT1-KO: T. brucei cell line lacking the TbAT1(P2) transporter gene; experiment: microbe, parasite or virus in culture; type: cell-based, Trypanosoma brucei brucei; details: for EC50: Trypanosoma brucei; for RF (TbAT1-KO): resistance factor: ratio of EC50 of resistant and Lister 427WT
Procedure: (§1) Drug susceptibility tests with Lister 427WT, TbAT1-KO[48], B48[26] and ISMR1[27] were performed using an assay based on the viability indicator dye resazurin in 96-well plates, each well containing 2 × 10^4 cells. The plates were incubated for 48 h with a doubling dilution series of the test compounds in HMI-9/fetal bovine serum at 37 °C/5% CO2 (23 dilutions starting at 100 µM, except for the pentamidine control (50 µM)), after which resazurin (20 µL of 125 µg mL^−1 resazurin sodium salt solution was added to each well (containing 200 µL of cells and test compound)) was added to each well and the plates incubated for another 24 h. Fluorescence was determined using a FLUOstar Optima (BMG Labtech, Durham, NC) and the results fitted to a sigmoid curve with variable slope using Prism 5.0 or Prism 7.04 (GraphPad, San Diego, CA).

[4] = test system: ISMR1: isometamidium-resistant T. brucei cell line; experiment: microbe, parasite or virus in culture; type: cell-based, Trypanosoma brucei brucei; details: for EC50: Trypanosoma brucei; for RF (ISMR1): resistance factor vs Lister 427WT
Procedure: as §1

[5] = test system: T. b. brucei Lister 427WT; experiment: Drug susceptibility test (resazurin), Lister 427WT; type: cell-based, Trypanosoma brucei brucei; details: Trypanosoma brucei
Procedure: as §1

[6] = Metabolic stability, pooled human liver microsomes (phase I and II)
Procedure: (§2) Mouse, rat, and pooled human liver microsomes were purchased from a commercial source (Corning) and stored at -80 °C. NADPH generating system solutions A and B and UGT reaction mix solutions A and B (Corning) were kept at -20°C. The test compound and the reference compounds diclofenac (MW […]
(§3) microsomal stability assay was carried out based on the BD Biosciences Guidelines for Use (TF000017 Rev1.0) with minor adaptations. Metabolic stability of the compounds was studied through the CYP450 superfamily (phase I metabolism) by fortification with reduced nicotinamide adenine dinucleotide phosphate (NADPH) and through uridine glucuronosyl-transferase (UGT) enzymes (phase II metabolism) by fortification with uridine diphosphate glucuronic acid (UDPGA). For the CYP450 and other NADPH dependent enzymes, both compounds were incubated at 5 µM together with 0.5 mg mL-1 liver microsomes in potassium phosphate buffer in a reaction started by the addition of 1 mM NADPH […]
(§4) At these time points, 20 µL was withdrawn from the reaction mixture and 80 µL cold acetonitrile (ACN) containing the internal standard tolbutamide, was added to inactivate the enzymes and precipitate the proteins. The mixture was vortexed for 30 s and centrifuged at 4 °C for 5 min at 15,000 rpm. The supernatant was stored at -80°C until analysis. For the UGT enzymes, both compounds were incubated at 5 µM together with 0.5 mg mL-1 liver microsomes in a reaction started by the addition of 2 mM UDPGA cofactor. The corresponding loss of parent compound was determined using liquid chromatography (UPLC) (Waters AquityTM) coupled with tandem quadrupole mass spectrometry (MS²) (Waters XevoTM), equipped with an electrospray ionization (ESI) interface and operated in multiple reaction monitoring (MRM) mode. […]

[7] = Metabolic stability, rat liver microsomes (phase I and II)
Procedure: as §2, §3, §4

[8] = Metabolic stability, mouse liver microsomes (phase I and II)
Procedure: as §2, §3, §4

[9] = mean and SEM, n = 3, read-out: B48 EC50
[10] = source data, read-out: B48 EC50, AVG
[11] = read-out: TbAT1-KO EC50, mean and SEM, n = 3
[12] = mean and SEM, n = 3, read-out: ISMR1 EC50
[13] = source data, read-out: ISMR1 EC50, AVG
[14] = mean and SEM, n = 3, read-out: Lister 427 EC50
[15] = source data, read-out: s427 EC50, AVG

Cc1ccc(C(=O)Nc2ccc(S(=O)(=O)O)c3cc(S(=O)(=O)O)cc(S(=O)(=O)O)c23)cc1NC(=O)c1cccc(NC(=O)Nc2cccc(C(=O)Nc3cc(C(=O)Nc4ccc(S(=O)(=O)O)c5cc(S(=O)(=O)O)cc(S(=O)(=O)O)c45)ccc3C)c2)c1 [suramin, reference compound]
parasitaemia, individual mice (T. b. brucei Squib 427; 4 dpi): 0 | parasitaemia, individual mice (T. b. brucei Squib 427; 7 dpi): 0 | parasitaemia, individual mice (T. b. brucei Squib 427; 10 dpi): 0 | parasitaemia, individual mice (T. b. brucei Squib 427; 14 dpi): 0 | parasitaemia, individual mice (T. b. brucei Squib 427; 21 dpi): 0

Nc1ncnc2c1ncn2[C@@H]1O[C@H](CO)C[C@H]1O [Cordycepin (3)]
EC50 ([1]; DCF +, single replicate, read-out: EC50): 5.51 nM and 1.22 nM and 4.17 nM | EC50 ([1]; DCF -, single replicate, read-out: EC50): 169 nM and 509 nM and 634 nM | EC50 ([1]; Trypanosoma brucei, DCF +, average of replicates, read-out: EC50 AVG): 3.63 nM | EC50 ([1]; Trypanosoma brucei, DCF +, read-out: EC50 Reported value): 3.6 ± 1 nM | EC50 ([1]; Trypanosoma brucei, DCF -, average of replicates, read-out: EC50 AVG): 437 nM | EC50 ([1]; Trypanosoma brucei, DCF -, read-out: EC50 Reported value): 440 ± 110 nM

N=C(N)c1ccc(OCCCCCOc2ccc(C(=N)N)cc2)cc1 [Pentamidine, reference compound]
EC50 [2, 9]: 990 ± 160 nM | EC50 [2, 10]: 877 nM | RF (B48) [2]: 94.6*** | EC50 [3, 11]: 18 ± 2 nM | RF (TbAT1-KO) [3]: 1.8** | EC50 [4, 12]: 140 ± 40 nM | EC50 [4, 13]: 138 nM | RF (ISMR1) [4]: 13.8** | EC50 [5, 14]: 11 ± 1 nM | EC50 [5, 15]: 9.93 nM

N=C(N)c1ccc(/N=N/Nc2ccc(C(=N)N)cc2)cc1 [Diminazene, reference compound]
EC50 [2, 9]: 7200 ± 1600 nM | EC50 [2, 10]: 7150 nM | RF (B48) [2]: 16.9*** | EC50 ([3]; read-out: TbAT1-KO EC50, AVG, source data): 4470 nM | EC50 [3, 11]: 4500 ± 900 nM | RF (TbAT1-KO) [3]: 10.6*** | EC50 [4, 12]: 2900 ± 400 nM | EC50 [4, 13]: 2920 nM | RF (ISMR1) [4]: 6.9*** | EC50 [5, 14]: 420 ± 64 nM | EC50 [5, 15]: 423 nM

OC(Cn1cncn1)(Cn1cncn1)c1ccc(F)cc1F [Fluco, fluconazole, reference compound]
% parent compound remaining ([6]; CYP - NADPH, 15 min): 110% | % parent compound remaining ([6]; CYP - NADPH, 30 min): 80% | % parent compound remaining ([6]; CYP - NADPH, 60 min): 103% | % parent compound remaining ([6]; UGT Enzymes, 15 min): 103% | % parent compound remaining ([6]; UGT Enzymes, 30 min): 116% | % parent compound remaining ([6]; UGT Enzymes, 60 min): 106% | % parent compound remaining ([7]; CYP - NADPH, 15 min): 110% | % parent compound remaining ([7]; CYP - NADPH, 30 min): 104% | % parent compound remaining ([7]; CYP - NADPH, 60 min): 96% | % parent compound remaining ([7]; UGT Enzymes, 15 min): 111% | % parent compound remaining ([7]; UGT Enzymes, 30 min): 105% | % parent compound remaining ([7]; UGT Enzymes, 60 min): 112% | % parent compound remaining ([8]; CYP - NADPH, 15 min): 111±12% | % parent compound remaining ([8]; CYP - NADPH, 30 min): 93±19% | % parent compound remaining ([8]; CYP - NADPH, 60 min): 100±12% | % parent compound remaining ([8]; UGT Enzymes, 15 min): 99±19% | % parent compound remaining ([8]; UGT Enzymes, 30 min): 104±3% | % parent compound remaining ([8]; UGT Enzymes, 60 min): 100±6%
